Measured values: article PMC6068142, “Biochemical and structural characterization of a mannose binding jacalin-related lectin with two-sugar binding sites from pineapple (Ananas comosus) stem” (Scientific Reports, 2018)
In brackets after ≈: the same amount, converted by molar mass. Like-named read-outs stand apart in the source and are kept apart here.

T1: AcmJRL (Ananas comosus, UniProt Q53J09)
T1 construct: native, purified from pineapple stem (D-mannose-Agarose, Superdex 75); initiator Met absent; N-terminus SGLVGLG; residues 2-145; not glycosylated; homodimer in solution, tetramer in crystal
T1 sequence (Q53J09 2-145): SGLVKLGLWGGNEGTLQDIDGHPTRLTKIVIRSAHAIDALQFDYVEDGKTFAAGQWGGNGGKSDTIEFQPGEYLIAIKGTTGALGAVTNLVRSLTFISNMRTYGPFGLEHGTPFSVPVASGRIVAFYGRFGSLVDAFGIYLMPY


How the values were obtained:
[1] = target: T2, AcmJRL (Ananas comosus, UniProt Q53J09); experiment: isothermal titration calorimetry; assay type: binding; details: for Ka (M^-1): Tris-HCl 50 mM, 150 mM NaCl, pH 7.4, 25 °C, fit with fixed n = 2 equivalent sites
T2 construct: native, purified from pineapple stem (D-mannose-Agarose, Superdex 75); initiator Met absent; N-terminus SGLVGLG; residues 2-145; not glycosylated; homodimer in solution, tetramer in crystal
Source text: isothermal titration calorimetry on AcmJRL

[2] = target: T1, AcmJRL; set-up: inhibition of lectin-induced rat erythrocyte hemagglutination, two-fold serial dilution, lowest saccharide concentration visibly decreasing agglutination; details: minimum concentration inhibiting hemagglutination of rat erythrocytes; inhibitor
Procedure: Hemagglutinating activity was performed in microtiter plates with V-bottom wells, using the two-fold serial dilution method, starting with a concentration of 1 mg/mL (65 µM) lectin in phosphate-buffered saline containing 150 mM NaCl. Rabbit, sheep and rat erythrocytes were washed six times with 150 mM NaCl and resuspended at a final concentration of 3% (v/v) in 150 mM NaCl. Twenty-five µL of lectin solution were mixed with 25 µL of 3% erythrocytes, serially diluted and incubated at room temperature and 37 °C for 1 h. Hemagglutination activity was also assayed in the presence of 50 mM of the divalent ions Mg^2+, Mn^2+ Zn^2+ and Ca^2+. In this case, Tris-HCl 50 mM buffer at pH 7.2 containing 150 mM NaCl was used to avoid precipitation of phosphate compounds. The hemagglutination activity was given as a titer (the reciprocal of the highest two-fold dilution) or expressed as the minimum protein concentration (μg/mL), which produced visible hemagglutination and denoted as Hemagglutinating Unit (HU). Specific activity was defined as the HU per milligram of protein. The carbohydrate-binding specificity was determined by the inhibition of hemagglutination of rat erythrocytes, that were only the hemagglutinated ones, with starting concentrations of 100 mM for D-mannose, methyl-α-D-mannopyranoside and methyl-α-D-glucopyranoside, 50 mM for D-glucose and N-acetyl-D-glucosamine, 15 mM for Manα1,3Man and Manα1,3(Manα1,6)Man and 10 mM for Manα1,3Manα1,6(Manα1,6)Manα1,3. The different saccharides were serially diluted from the starting concentrations. After addition of 25 µL of A. comosus lectin (187.5 µg/mL) to all microplate wells, 25 µL of each saccharide were mixed separately in the first microtiter plate well followed by two-fold serial dilution and pre-incubated at room temperature for 1 h. Then 25 µL of 3% […] erythrocyte suspension were added to each well and the hemagglutination activity was evaluated after a further 1 h incubation period at room temperature and 37 °C. […] These are, e.g., the lectins from Phlebodium aureum rhizomes and Centrolobium microchaete seeds and heltuba[19],[47],[52].

[3] = target: T2, AcmJRL; experiment: inhibition of rat erythrocyte hemagglutination; assay type: cell-based; details: AcmJRL 62.5 µg/mL; two-fold serial dilution of sugar
[4] = target: the molecule itself; experiment: SEC; FPLC gel filtration on Superdex 75 of affinity-purified AcmJRL; 0.15 mM protein; estimated native mass ~30 kDa
[5] = target: the molecule itself; experiment: crystal structure; hanging drop vapor diffusion at 20 °C, protein at 17 mg/mL (1.1 mM); apo form (1.8 Å) and crystals soaked with D-mannose (2.75 Å) or methyl-α-D-mannopyranoside (1.9 Å)

Molecule | Ka (M^-1) [1] | MIC [2] | also measured
OC[C@H]1O[C@H](OC[C@H]2O[C@H](OC[C@H]3OC(O)[C@@H](O)[C@@H](O[C@H]4O[C@H](CO)[C@@H](O)[C@H](O)[C@@H]4O)[C@@H]3O)[C@@H](O)[C@@H](O[C@H]3O[C@H](CO)[C@@H](O)[C@H](O)[C@@H]3O)[C@@H]2O)[C@@H](O)[C@@H](O)[C@@H]1O (stereo partly shown) [Mannopentaose] | 1694 ± 679 | 320 µM (≈ 265 µg/mL) | 
CC(=O)N[C@H]1C(O)O[C@H](CO)[C@@H](O)[C@@H]1O (stereo partly shown) [GlcNAc] | 88 ± 1 | 3120 µM (≈ 690 µg/mL) | 
OC[C@H]1O[C@H](OC[C@H]2OC(O)[C@@H](O)[C@@H](O[C@H]3O[C@H](CO)[C@@H](O)[C@H](O)[C@@H]3O)[C@@H]2O)[C@@H](O)[C@@H](O)[C@@H]1O (stereo partly shown) [Mannotriose] | 734 ± 117 | 470 µM (≈ 237 µg/mL) | 
OC[C@H]1OC(O)[C@H](O)[C@@H](O)[C@@H]1O (stereo partly drawn) [D-Glucose] | 83 ± 3 | 3120 µM (≈ 562 µg/mL) | 
OC[C@H]1OC(O)[C@@H](O)[C@@H](O)[C@@H]1O (stereo partly drawn) [D-Mannose] |  | 6250 µM (≈ 1130 µg/mL) | Kd ([1]; read-out: Ka (M^-1) (converted)): 5.62 mM
OC[C@H]1O[C@H](O[C@H]2[C@H](O)[C@@H](CO)OC(O)[C@H]2O)[C@@H](O)[C@@H](O)[C@@H]1O (stereo partly shown) [Manα1,3Man] | 421 ± 52 | 940 µM (≈ 322 µg/mL) | 
CO[C@H]1O[C@H](CO)[C@@H](O)[C@H](O)[C@@H]1O [methyl-α-D-mannopyranoside] |  |  | MIC [3]: 1560 µM (≈ 303 µg/mL)
CO[C@H]1O[C@H](CO)[C@@H](O)[C@H](O)[C@H]1O [methyl-α-D-glucopyranoside] |  |  | MIC [3]: 1560 µM (≈ 303 µg/mL)
Ananas comosus mannose jacalin-related lectin (AcmJRL) (natural protein, UniProt Q53J09 2-145, looked up, jacalin-like lectin from Ananas comosus (pineapple) stem, SwissProt entry Q53J09_ANACO; each monomer in the crystal runs from Ser2 to Tyr145; not glycosylated; Homodimer in solution by size-exclusion chromatography (0.15 mM); tetramer in the crystal (1.1 mM); Purification methods are in the Supplementary Materials and Methods; also called A. comosus lectin; jacalin-like lectin from A. comosus) SGLVKLGLWGGNEGTLQDIDGHPTRLTKIVIRSAHAIDALQFDYVEDGKTFAAGQWGGNGGKSDTIEFQPGEYLIAIKGTTGALGAVTNLVRSLTFISNMRTYGPFGLEHGTPFSVPVASGRIVAFYGRFGSLVDAFGIYLMPY |  |  | stoichiometry N [4]: 2; stoichiometry N [5]: 4
